A word on the inhibition: it is the drop in the measured response relative to a control, in per cent.

Structures can show the parent of a compound that is named as a salt. Where two headings read alike, the source gives them in different places. Where a SMILES comes first, the peptide text is derived from it.

Experimental findings from paper PMC7802075 (ACS Infectious Diseases, 2020) are described below.

For this test, the target named is T1, LmjIPCS (inositol phosphorylceramide synthase from L. major) (Leishmania major, UniProt E9AFX2).
T1 sequence (E9AFX2 1-338): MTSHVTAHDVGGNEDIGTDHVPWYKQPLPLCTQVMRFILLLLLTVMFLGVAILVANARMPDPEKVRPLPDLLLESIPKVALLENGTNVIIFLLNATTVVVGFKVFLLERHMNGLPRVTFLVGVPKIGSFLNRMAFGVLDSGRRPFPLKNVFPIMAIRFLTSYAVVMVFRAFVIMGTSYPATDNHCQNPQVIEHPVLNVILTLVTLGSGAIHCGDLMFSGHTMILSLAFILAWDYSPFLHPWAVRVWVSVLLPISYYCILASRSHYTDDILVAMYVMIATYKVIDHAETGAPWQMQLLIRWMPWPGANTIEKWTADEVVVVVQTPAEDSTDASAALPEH
Nature of the test: biochemical. Details: inhibition: dose or concentration left out as unconfirmed. Particulars: for inhibition: read-out: inhibition LmjIPCS; for inhibition at 20000 µM: read-out: 20mM inhibition LmjIPCS. The class given is biochemical.

Setting [1] is: NINDS set screen, single concentration printed as 20mM.
The mark [2] stands for this setting: screening of NINDS set, sheet Screen 1.

On to `Cc1cc(-c2ccccc2)nnc1NCCN1CCOCC1` [MINAPRINE], for which the inhibition (NINDS set screen) amounted to 25%.

For the compound `c1ccc2[nH]c(-c3cscn3)nc2c1` [THIABENDAZOLE], the “20mM inhibition LmjIPCS” value under setting [1] was 41%. Turning to `O=C(O)c1cc(=O)c2ccccc2[nH]1` [KYNURENIC ACID], the inhibition at 20000 µM was found to be 6%.

Consider `NCCCCN=C(N)N` [AGMATINE SULFATE], for which the inhibition at 20000 µM was 24%. Consider `CC(CCc1ccccc1)NC(C)C(O)c1ccc(O)cc1` (stereo not drawn) [NYLIDRIN HYDROCHLORIDE], for which the “20mM inhibition LmjIPCS” value under setting [1] amounted to 54%. In the case of `C[C@@]12C[C@@]3(O)O[C@@H](O1)[C@]1(COC(=O)c4ccccc4)[C@H]3C[C@@]12O[C@@H]1O[C@H](CO)[C@@H](O)[C@H](O)[C@H]1O` [PEONIFLORIN], the inhibition turned out to be 12%.

On to `O=C(/C=C/C=C/c1ccc2c(c1)OCO2)N1CCCCC1` [PIPERINE], for which the inhibition at 20000 µM came out at 13%. Turning to `OC(c1cc(C(F)(F)F)nc2c(C(F)(F)F)cccc12)C1CCCCN1` (stereo not drawn) [MEFLOQUINE], the “20mM inhibition LmjIPCS” value was 49%. Turning to `CCC1(C)CC(=O)NC1=O` (stereo not drawn) [ETHOSUXIMIDE], under setting [2], the inhibition came out at 6%. For `COc1ccc2[nH]cc(CCNC(C)=O)c2c1` [MELATONIN], the inhibition was -5.63%. On to `CCOC(=O)C1=C[C@]2(CC)CCCN3CCc4c(n1c1ccccc41)[C@@H]32` [VINPOCETINE], for which the “20mM inhibition LmjIPCS” value under setting [1] amounted to 36%.

As to `C[C@@H]1O[C@@H]1P(=O)(O)O` [FOSFOMYCIN], the inhibition is 16%. For `NC(=O)c1ncn([C@@H]2O[C@H](CO)[C@@H](O)[C@H]2O)c1O` [MIZORIBINE], the inhibition at 20000 µM was 6.58%. Take `COc1ccc2c(c1)[C@]13CCCC[C@@H]1[C@H](C2)N(C)CC3` [DEXTROMETHORPHAN]: the “20mM inhibition LmjIPCS” value is recorded as 64%.

On to `COC(=O)[C@H](Cc1ccccc1)NC(=O)[C@@H](N)CC(=O)O` (H-Asp-Phe-OMe), for which, under setting [2], the inhibition worked out at 10%. Regarding `CS(=O)(=O)c1ccc([C@@H](O)[C@@H](CO)NC(=O)C(Cl)Cl)cc1` [THIAMPHENICOL], the inhibition at 20000 µM amounted to 0.377%.

Regarding `[H]/N=C(\N/C(=N/[H])Nc1ccc(Cl)cc1)NC(C)C` [CHLOROGUANIDE], the inhibition (NINDS set screen) was 28%. For `C[C@H](N)[C@H](O)c1cccc(O)c1` [METARAMINOL], the “20mM inhibition LmjIPCS” value is recorded as 58%. For `COc1c(C)c2c(c(O)c1C/C=C(\C)CCC(=O)O)C(=O)OC2` [MYCOPHENOLIC ACID], the inhibition stood at 4%.

For `Cc1nnc(SCC2=C(C(=O)O)N3C(=O)[C@@H](NC(=O)Cn4cnnn4)[C@H]3SC2)s1` [CEFAZOLIN], the “20mM inhibition LmjIPCS” value came to 35%. The same measure, in the same setting: the figure for `N=C(N)NC(=O)c1nc(Cl)c(N)nc1N` [AMILORIDE] is 52%.

On to `CCC[C@H](N[C@@H](C)C(=O)N1[C@H](C(=O)O)C[C@@H]2CCCC[C@@H]21)C(=O)OCC` [PERINDOPRIL], for which the inhibition at 20000 µM is 2%. Regarding `NC[C@H]1O[C@H](O[C@H]2[C@H](O)[C@@H](O[C@H]3O[C@H](CO)[C@@H](O)[C@H](N)[C@H]3O)[C@H](N)C[C@@H]2N)[C@H](O)[C@@H](O)[C@@H]1O` [KANAMYCIN], the “20mM inhibition LmjIPCS” value is reported as 26%. Take `C[C@@H]1O[C@@H](OC[C@H]2O[C@@H](Oc3c(-c4ccc(OCCO)c(OCCO)c4)oc4cc(OCCO)cc(O)c4c3=O)[C@H](O)[C@@H](O)[C@@H]2O)[C@H](O)[C@H](O)[C@H]1O` [TROXERUTIN]: the inhibition at 20000 µM was determined as 20%. With `C[N+]12CCC(CC1)C(OC(=O)C(O)(c1ccccc1)c1ccccc1)C2` (stereo not drawn) [CLIDINIUM BROMIDE], the “20mM inhibition LmjIPCS” value was 54%. On the same count and under the same terms, under `CC(=O)[C@H]1CC[C@H]2[C@@H]3CCC4=CC(=O)CC[C@]4(C)[C@H]3CC[C@]12C` [PROGESTERONE] stands 65%.

For `CC(=O)OCC(=O)[C@H]1CC[C@H]2[C@@H]3CCC4=CC(=O)CC[C@]4(C)[C@H]3CC[C@]12C` [DESOXYCORTICOSTERONE ACETATE], the inhibition at 20000 µM worked out at 17%. In the case of `C[C@@H]1CC[C@H]2[C@@H](C)C(=O)O[C@@H]3O[C@@]4(C)CC[C@@H]1[C@]32OO4` [ARTEMISININ], the inhibition is 1.06%. Consider `CC(=O)[C@H]1CC[C@H]2[C@@H]3CC=C4C[C@@H](O)CC[C@]4(C)[C@H]3CC[C@]12C` [PREGNENOLONE], for which the “20mM inhibition LmjIPCS” value under setting [1] was determined as 52%.

With `Cc1cc(=O)[nH]c(=S)[nH]1` [METHYLTHIOURACIL], under setting [2], the inhibition amounted to 7%. Regarding `CC(Cc1ccc(O)cc1)NCC(O)c1cc(O)cc(O)c1` (stereo not drawn) [FENOTEROL], the inhibition at 20000 µM turned out to be 15%. For the compound `O=c1oc2ccccc2c(O)c1Cc1c(O)c2ccccc2oc1=O` [DICUMAROL], the inhibition is -3%. `FC(F)(F)c1cccc(N2CCNCC2)c1`: the “20mM inhibition LmjIPCS” value turned out to be 54%. Turning to `C[N+]1(C)[C@@H]2C[C@@H](OC(=O)[C@H](CO)c3ccccc3)C[C@H]1[C@@H]1O[C@@H]12` [METHSCOPOLAMINE BROMIDE], the inhibition at 20000 µM was 10%. In the case of `COc1ccc2cc3[n+](cc2c1OC)CCc1cc2c(cc1-3)OCO2` [BERBERINE], the inhibition came out at 6%. For `CC1(C)O[C@@H]2C[C@H]3[C@@H]4CCC5=CC(=O)CC[C@]5(C)[C@@]4(F)[C@@H](O)C[C@]3(C)[C@]2(C(=O)CCl)O1` [HALCINONIDE], the inhibition at 20000 µM was found to be 20%. `CS(=O)(=O)Nc1ccc([N+](=O)[O-])cc1Oc1ccccc1` [NIMESULIDE]: the inhibition at 20000 µM turned out to be 11%.

Turning to `O=C(COc1ccc(Cl)cc1)N1CCN(Cc2ccc3c(c2)OCO3)CC1` [FIPEXIDE], under setting [2], the inhibition was 2.64%. Consider `OC[C@@H]1CCCN2CCCC[C@H]12` [LUPININE], for which the inhibition at 20000 µM amounted to 11%. `Oc1noc2c1CCNC2` [GABOXADOL]: the inhibition at 20000 µM is -24%. Take `Cc1cn([C@H]2C[C@H](N=[N+]=[N-])[C@@H](CO)O2)c(=O)[nH]c1=O` [ZIDOVUDINE [AZT]]: for the setting “single concentration 20mM as printed, screening of NINDS set, sheet Screen 1”, the “20mM inhibition LmjIPCS” value worked out at 7%.

Take `O=c1cc(-c2ccccc2)oc2cc(O)c(O)c(O)c12` [BAICALEIN]: the inhibition came out at 32%. For `c1ccc2c(Cc3c[nH]c4ccccc34)c[nH]c2c1` [3,3'-DIINDOLYLMETHANE], the “20mM inhibition LmjIPCS” value under setting [1] amounted to 37%. Regarding `CC(=O)Oc1ccc(Cl)c2cccnc12` [CHLOROACETOXYQUINOLINE], the inhibition at 20000 µM worked out at 19%.

For the compound `CCN1CCN(C(=O)N[C@@H](C(=O)N[C@@H]2C(=O)N3[C@@H]2SC(C)(C)[C@@H]3C(=O)O)c2ccccc2)C(=O)C1=O` [PIPERACILLIN], the “20mM inhibition LmjIPCS” value is 60%. With `O=C1C(CC[S+]([O-])c2ccccc2)C(=O)N(c2ccccc2)N1c1ccccc1` (stereo not drawn) [SULFINPYRAZONE], the inhibition was -6%. The same measure, in the same setting: the figure for `OCCN1CCN(CCCN2c3ccccc3Sc3ccc(Cl)cc32)CC1` [PERPHENAZINE] is 0.226%. For the compound `Cn1c([N+](=O)[O-])cnc1COC(N)=O` [RONIDAZOLE], the inhibition (NINDS set screen) is 0.0172%. In the case of `C=C1c2c(Cl)ccc(O)c2C(=O)C2=C(O)[C@]3(O)C(=O)C(C(N)=O)=C(O)[C@@H](N(C)C)[C@@H]3[C@@H](O)[C@H]12` [MECLOCYCLINE], the “20mM inhibition LmjIPCS” value under setting [1] stood at 67%. With `CS(=O)(=O)OCCCCOS(C)(=O)=O` [BUSULFAN], the “20mM inhibition LmjIPCS” value under setting [1] was 44%. With `CNC(=N)NCCC[C@H](N)C(=O)O` [TARGININE], the “20mM inhibition LmjIPCS” value was -2%. Consider `CC(C)CC(NC(=O)OCC1c2ccccc2-c2ccccc21)C(=O)O` (stereo in doubt), for which the inhibition at 20000 µM came out at 12%. Still for that read-out and setting: under `CC1(C)O[C@@H]2C[C@H]3[C@@H]4C[C@H](F)C5=CC(=O)CC[C@]5(C)[C@H]4[C@@H](O)C[C@]3(C)[C@]2(C(=O)CO)O1` [FLURANDRENOLIDE] stands -15%. Turning to `Oc1cccc(O)c1` [RESORCINOL], the inhibition is 1.29%. Consider `CC12CCC3c4ccc(OCc5ccccc5)cc4CCC3C1C[C@@H](O)[C@@H]2O` (stereo partly drawn) [ESTRIOL BENZYL ETHER], for which the “20mM inhibition LmjIPCS” value under setting [1] was found to be 42%.

Turning to `C[C@@H]1C[C@H]2[C@@H]3C[C@H](F)C4=CC(=O)C=C[C@]4(C)[C@@]3(F)[C@@H](O)C[C@]2(C)[C@@]1(O)C(=O)COC(=O)C(C)(C)C` [FLUMETHAZONE PIVALATE], the “20mM inhibition LmjIPCS” value came to 14%. `O=C(O)c1nc2cc(Cl)c(Cl)cc2nc1O`: the inhibition (NINDS set screen) is -14%. Consider `COc1ccc(OC)c(C(O)C(C)N)c1` (stereo not drawn) [METHOXAMINE], for which the inhibition at 20000 µM was 24%. As to `CC12CC3CC(C)(C1)CC(N)(C3)C2` [MEMANTINE], under setting [1], the “20mM inhibition LmjIPCS” value was 66%. For the compound `O=C(O)c1cc(O)c2cccc(O)c2n1` [X[…]], the inhibition at 20000 µM was 8%. Turning to `CC(C)[C@H]1CC[C@H](C(=O)N[C@H](Cc2ccccc2)C(=O)O)CC1` [NATEGLINIDE], the inhibition under setting [2] is 7%.

On to `COc1ccc(CCN(C)CCCC(C#N)(c2ccc(OC)c(OC)c2)C(C)C)cc1OC` (stereo not drawn), for which the “20mM inhibition LmjIPCS” value was 42%. Still for that read-out and setting: the figure for `CNCCCN1c2ccccc2CCc2ccccc21` [DESIPRAMINE] is 64%. Consider `C[C@H]1COc2c(N3CCN(C)CC3)c(F)cc3c(=O)c(C(=O)O)cn1c23` [LEVOFLOXACIN], for which the inhibition amounted to 11%. In the case of `CC(C)NNC(=O)c1ccncc1` [IPRONIAZID], where the note is “NINDS set screen”, the inhibition was determined as 31%. As for `CCN1CCN(C(=O)N[C@@H](C(=O)N[C@@H]2C(=O)N3C(C(=O)O)=C(CSc4nnnn4C)CS[C@H]23)c2ccc(O)cc2)C(=O)C1=O` [CEFOPERAZONE], the inhibition at 20000 µM was determined as 13%. On the same count and under the same terms, under `CC(C)(Sc1cc(C(C)(C)C)c(O)c(C(C)(C)C)c1)Sc1cc(C(C)(C)C)c(O)c(C(C)(C)C)c1` [PROBUCOL] stands 25%. As to `N[C@@H]1CON=C1O` [CYCLOSERINE], the inhibition is -1.4%. `CN/C(=N/CCSCc1nc[nH]c1C)NC#N` [CIMETIDINE]: the inhibition at 20000 µM was -0.386%.
